# Assay results from patent US20110257146A1, “Method of Treating Kcnq Related Disorders Using Organozinc Compounds” (The johns Hopkins University, priority 2006, published 2011).
# Tests used:
# [1] = Mouse model of severe focal ischemia; details: in vivo
# KCNQ2/3 heteromultimers = biological target: T1, KCNQ2/3 heteromultimers (Rattus norvegicus, UniProt O88943+O88944); assay: Whole-cell voltage clamp of CHO cells expressing KCNQ2/3 heteromultimers; format: cell-based
# T1 construct: expressed in transfected cells
# Experimental: (§1) Cell culture and transient transfection—Chinese Hamster Ovary (CHO) cells were grown in 50/50 DMEM/F12 (Cellgro) with 10% FBS (Gibco), 100 U/ml penicillin (Cellgro), 100 μg/ml streptomycin (Cellgro) and 2 mM L-glutamine (Gibco). At 24 hours before transfection, cells were split and plated in 60 mm dishes and were transfected with Lipofectamine2000™ reagent (Invitrogen) according to the manufacturer's instruction. At 24 hours after transfection, cells were split and re-plated onto coverslips coated with poly-L-lysine (Sigma). Plasmid expressing CD4 cDNA as a marker was cotransfected with the channel cDNAs of hKCNQ1 (from Dr. Michael Sanguinetti), hKCNQ4 (from Dr. Vitya Vardanyan), rKCNQ2, rKCNQ3, and hKCNQ5 (from Drs. David McKinnon, Mark Shapiro, and Thomas Jentsch). Prior to recording, anti-CD4 Dynabeads (Dynal. Biotech. Inc.) were added into the medium to allow for identification of the transfected cells. Stable lines expressing Kv2.1, hERG, and Kv4.2 were generated by standard protocols using pcDNA3.1 and maintained at complete medium supplemented with 500 μg/ml G418. The N-type calcium channel stable line was a kind gift from Drs. Diane Lipscombe and David Yue.
# (§2) Electrophysiological Recording—Standard whole-cell recording was used. Pipettes were pulled from borosilicate glass capillaries (TW150-4, World Precision Instruments, Sarasota, Fla.). When filled with the intracellular solution, the pipettes have resistances of […]. During the recording, constant perfusion of extracellular solution was maintained using a BPS perfusion system (ALA, Westbury, N.Y.). Pipette solution contained (mM): KCl 145, MgCl2 1, EGTA 5, HEPES 10, MgATP 5 (pH 7.3); extracellular solution contained (mM): NaCl 140, KCl 3, CaCl2 2, MgCl2 1.5, HEPES 10, glucose 10 (pH 7.4). Current and voltage were recorded using an Axopatch-200A amplifier, filtered at 1 kHz and digitized using a DigiData 1322A with pClamp 9.2 software (Axon Instruments, Foster City, Calif.). Series resistance compensation was also used and set to 60-80%.
# (§3) Data and Statistical Analysis—Patch-clamp data were preprocessed using Clampfit 9.2 (Axon Instruments, Foster City, Calif.) and then analyzed in Origin 7 (OriginLab, Northampton, Mass.). The activation curve was fitted by the Boltzmann equation: G=(Gmax−Gmin)/[1+exp[(V−V1/2)/S]]+Gmin, where Gmax is the maximum conductance, Gmin is the minimum conductance, V1/2 is the voltage for half of the total numbers of channels to open, and S is the slope factor. The dose response curve was fitted by the Hill equation: E=Emax/(1+(EC50/C)^P), where Emax is the maximum response, C is the drug concentration, EC50 is the drug concentration producing half of the maximum response, and P is the Hill coefficient. The deactivation trace was fitted by the standard exponential equation: I(t)=ΣIi*exp(−t/τi), where I is the current, t is the time and τ is the time constant. Data are presented as means±SE. Significance was estimated using paired two-tailed Student's t-test.
# KCNQ2 = KCNQ2 (Rattus norvegicus, UniProt O88943); assay: Whole-cell voltage clamp of CHO cells expressing KCNQ2; format: cell-based; set-up: expressed in transfected cells; host or cells: CHO cells
# Experimental: as §1, §2, §3
# hippocampal neurons = assay: Membrane potential and elicited action potentials of isolated hippocampal neurons; format: cell-based, rat; details: 10 μM ZnPy
# Experimental: FIG. 10. ZnPy potentiation of native M-current. A. M current recorded from an isolated rat dorsal root ganglion neuron, Vh was −60 mV, stepped to −20 mV, followed by a step to −50 mV, and stepped back to −20 mV. B. Histograms show M-current amplitudes in the presence and absence of 10 μM ZnPy (n=10, * p<0.001). M-current amplitudes were measured by fitting the IM relaxation with an exponential equation. The recording bath solution includes 1 μM TTX, 0.2 mM TEA, 1 mM 4-AP, 50 μM CNQX, and 10 μM bicuculline. C. Membrane potential of an isolated hippocampal neuron was monitored when 10 μM ZnPy was applied in bath solution followed by the addition of 15 μM linopirdine. D. Action potentials elicited by 200 pA current injection to a patched hippocampal neuron. The ZnPy treatments are as indicated.
# Neuron Culture—Dorsal root ganglia (DRG) was collected from fourteen-day-old CD rat and incubated in collagenase (sigma, 500 U/ml, 15 min) and then trypsin (Sigma, 1 mg/ml, 30 min) at 37° C. Single DRG neurons were isolated by mechanical trituration with a fire-polished glass Pasteur pipette. Hippocampal tissue was dissected out from CD rat postnatal day 0. The tissue was digested with papain (Worthington Biochem, 20 U/ml, 30 min) and resuspended into single cells. The single-cell suspension was plated onto a monolayer of glial cells that were growing on coated cover slips. Cytosine-1-D-arabinofuranoside at 5 μM was added into the culture medium 24-48 hours later to arrest glial cell proliferation. The culture medium consisted of Neurobasal™ medium with B-27 supplement (Gibco), penicillin/streptomycin and 2 mM L-glutamine. All cells were maintained at 37° C. with 5% CO2 prior to recording.
# Electrophysiological Recording—Standard whole-cell recording was used. Pipettes were pulled from borosilicate glass capillaries (TW150-4, World Precision Instruments, Sarasota, Fla.). […] Current and voltage were recorded using an Axopatch-200A amplifier, filtered at 1 kHz and digitized using a DigiData 1322A with pClamp 9.2 software (Axon Instruments, Foster City, Calif.). […]
structure (smiles),measurement,setting,value
"S=c1ccccn1[O][Zn][O]n1ccccc1=S [ZnPy, Zinc Pyrithione]",neuroprotection,[1],significantly decreasing brain infarct volume and neurological deficit
same,hyperpolarizing shift of V1/2,KCNQ2/3 heteromultimers; 10 μM ZnPy,24.4±0.8 mV
same,V1/2 in presence of compound,"KCNQ2/3 heteromultimers; 10 μM ZnPy, control −20.3±0.8 mV",−44.7±1.9 mV
same,activation time constant,"KCNQ2/3 heteromultimers; +50 mV, with ZnPy, control 75.6±4.9",157.8±23.5 milliseconds
same,Hill coefficient of dose dependent curve,KCNQ2/3 heteromultimers; KCNQ2/3,1.4
same,EC50,"KCNQ2/3 heteromultimers; KCNQ2/3 heteromultimers, read-out: EC50 of midpoint of activation voltage (V1/2) shift",2400 ± 400 nM
same,deactivation time constant,"KCNQ2/3 heteromultimers; −120 mV, 10 μM ZnPy, control 12.4±0.7",41.9±6.4 milliseconds
same,effect on membrane potential of CHO cells expressing KCNQ2,KCNQ2; 10 μM ZnPy,significant hyperpolarization
same,left (hyperpolarizing) shift of V1/2,KCNQ2; 10 μM ZnPy,25.5±1.5 mV
same,effect on TEA-blocked KCNQ2 current,KCNQ2; 10 μM ZnPy extracellular in presence of 20 mM TEA,unable to reverse the TEA inhibition
same,potentiation on intracellular application,"KCNQ2; 10 μM ZnPy in pipette solution, with or without EGTA",induced no potentiation
same,V1/2 on internal perfusion,"KCNQ2; 10 μM ZnPy through recording pipette, 0 to 12 minutes",consistent and identical to that of KCNQ2 control
same,effect on channel activity,"KCNQ2; 10 μM ZnPy, extracellular",potentiated
same,V1/2 (voltage required for half maximal activation) in presence of compound,"KCNQ2; 10 μM ZnPy, control −18.9±0.6 mV",−44.4±0.9 mV
same,activation time constant,"KCNQ2; +50 mV, with ZnPy, control 163.5±13.7",293.1±11.2 milliseconds
same,Hill coefficient of dose dependent curve,KCNQ2; KCNQ2,1.8
same,EC50,"KCNQ2; KCNQ2 alone, read-out: EC50 of midpoint of activation voltage (V1/2) shift",1500 ± 300 nM
same,deactivation time constant,"KCNQ2; −120 mV, 10 μM ZnPy, control 14.1±0.6",54.4±0.9 milliseconds
same,effect on membrane potential,hippocampal neurons,noticeable hyperpolarization of membrane potential
same,effect on repetitive firing elicited by current injection,hippocampal neurons; 200 pA current injection,immediately abolished the repetitive firing
